In patent US20240316017A1, “NOVEL PYRIDINE DERIVATIVE COMPOUND AS RON INHIBITOR” (LG CHEM, LTD., priority 2021, published 2024):

Assays:
RON = RON (Homo sapiens, UniProt Q04912); experiment: Evaluation of inhibitory activity against RON (TR-FRET kinase assay); type: biochemical; details: RON protein, ULight-labeled Poly GT substrate
Experimental: In order to measure the inhibitory activity of each of the compounds of Examples against RON, the IC50 of each of the compounds was measured using Time-resolved fluorescence energy transfer (TR-FRET).
(§1) Specifically, the compound was prepared to a concentration of 1 mM in 100% DMSO and was diluted 10 times in a stepwise manner through 3-fold dilution. The compound (2 ul) diluted in a stepwise manner was added to a 96-well-plate containing 48 ul of a 1× kinase reaction buffer (50 mM HEPES (pH 7.4), 0.01% Tween-20, 5 mM DTT, 0.5 mM Na3VO4, 2 mM EGTA, 10 mM MgCl2).
The RON protein was diluted to a concentration of 49.3 nM in a RON storage buffer (50 mM Tris-HCl (pH 7.5), 150 mM NaCl, 0.5 mM EDTA, 0.02% Triton X-100), and then diluted again to a concentration of 0.4 nM in a 1×kinase reaction buffer. As a substrate cocktail, a RON-specific substrate mixed solution (40 uM ULight-labeled Poly GT, 100 nM ATP) was prepared at a concentration 2 times the final reaction concentration.
(§2) Thereafter, a 384-well-plate was prepared, and 2.5 μl of each of the diluted compounds of Examples was added to a corresponding well of experimental group wells, and 2.5 μl of a 4% DMSO solution was dispensed into high control wells and low control wells.
(§3) Thereafter, 2.5 μL of 0.4 nM RON was dispensed into each of the high control wells and the experimental group wells, and 2.5 μL of the 1× kinase reaction buffer was added to the low control wells, and all the wells were centrifuged at room temperature for 40 seconds at 1,000 RPM, and then incubated at room temperature for 20-30 minutes. Then, 5 uL of the substrate cocktail (2×) was dispensed into each well, and all the wells were centrifuged at room temperature for 40 seconds at 1,000 RPM, and then incubated at room temperature for 60 minutes. Thereafter, 5 uL of 30 mM EDTA was added to each well to terminate the reaction, and all the wells were then incubated again at room temperature for 5 minutes. Thereafter, 5 uL of a 4× phosphotyrosine antibody (Perkin Elmer) containing europium was added to each well, and all the wells were then incubated at room temperature for 60 minutes. After the incubation, the 384-well-plate was read with the Vison plate reader. In this case, the excitation wavelength was 340 nm, and the emission wavelength was 620 nm and 665 nm. The IC50 value of each compound of Examples was derived using the GraphPd Prism7 program.

cMET = cMET (Homo sapiens, UniProt P08581); experiment: Evaluation of inhibitory activity against MET (TR-FRET kinase assay); type: biochemical; details: cMET protein, TK peptide substrate
Experimental: In addition, in order to measure the enzyme activity inhibition for cMET, the evaluation was performed in the same manner as the enzyme activity inhibition measurement experiment for RON.
as §1, with “7.4), 0.05% BSA, 0.005%” for “7.4), 0.01%”, “Tween-20, 1” for “Tween-20, 5”, “mM MnCl2, 20” for “mM Na3VO4, 2 mM EGTA, 10”
The cMET protein was diluted to a concentration of 263 nM in a cMET storage buffer (50 mM Tris-HCl (pH 7.5), 150 mM NaCl, 0.05% Brij35, 1 mM DTT, 10% Glycerol), and then diluted again to a concentration of 2 nM in a 1× kinase reaction buffer. As a substrate cocktail, a MET-specific substrate mixed solution (5 uM TK peptide, 10 mM ATP) was prepared at a concentration 2 times the final reaction concentration.
as §2
as §3, with “of 2” for “of 0.4”, “nM cMET” for “nM RON”, “the 1×kinase” for “the 1× kinase”, “of 90” for “of 30”

Chain of cMET (P08581 25-1390): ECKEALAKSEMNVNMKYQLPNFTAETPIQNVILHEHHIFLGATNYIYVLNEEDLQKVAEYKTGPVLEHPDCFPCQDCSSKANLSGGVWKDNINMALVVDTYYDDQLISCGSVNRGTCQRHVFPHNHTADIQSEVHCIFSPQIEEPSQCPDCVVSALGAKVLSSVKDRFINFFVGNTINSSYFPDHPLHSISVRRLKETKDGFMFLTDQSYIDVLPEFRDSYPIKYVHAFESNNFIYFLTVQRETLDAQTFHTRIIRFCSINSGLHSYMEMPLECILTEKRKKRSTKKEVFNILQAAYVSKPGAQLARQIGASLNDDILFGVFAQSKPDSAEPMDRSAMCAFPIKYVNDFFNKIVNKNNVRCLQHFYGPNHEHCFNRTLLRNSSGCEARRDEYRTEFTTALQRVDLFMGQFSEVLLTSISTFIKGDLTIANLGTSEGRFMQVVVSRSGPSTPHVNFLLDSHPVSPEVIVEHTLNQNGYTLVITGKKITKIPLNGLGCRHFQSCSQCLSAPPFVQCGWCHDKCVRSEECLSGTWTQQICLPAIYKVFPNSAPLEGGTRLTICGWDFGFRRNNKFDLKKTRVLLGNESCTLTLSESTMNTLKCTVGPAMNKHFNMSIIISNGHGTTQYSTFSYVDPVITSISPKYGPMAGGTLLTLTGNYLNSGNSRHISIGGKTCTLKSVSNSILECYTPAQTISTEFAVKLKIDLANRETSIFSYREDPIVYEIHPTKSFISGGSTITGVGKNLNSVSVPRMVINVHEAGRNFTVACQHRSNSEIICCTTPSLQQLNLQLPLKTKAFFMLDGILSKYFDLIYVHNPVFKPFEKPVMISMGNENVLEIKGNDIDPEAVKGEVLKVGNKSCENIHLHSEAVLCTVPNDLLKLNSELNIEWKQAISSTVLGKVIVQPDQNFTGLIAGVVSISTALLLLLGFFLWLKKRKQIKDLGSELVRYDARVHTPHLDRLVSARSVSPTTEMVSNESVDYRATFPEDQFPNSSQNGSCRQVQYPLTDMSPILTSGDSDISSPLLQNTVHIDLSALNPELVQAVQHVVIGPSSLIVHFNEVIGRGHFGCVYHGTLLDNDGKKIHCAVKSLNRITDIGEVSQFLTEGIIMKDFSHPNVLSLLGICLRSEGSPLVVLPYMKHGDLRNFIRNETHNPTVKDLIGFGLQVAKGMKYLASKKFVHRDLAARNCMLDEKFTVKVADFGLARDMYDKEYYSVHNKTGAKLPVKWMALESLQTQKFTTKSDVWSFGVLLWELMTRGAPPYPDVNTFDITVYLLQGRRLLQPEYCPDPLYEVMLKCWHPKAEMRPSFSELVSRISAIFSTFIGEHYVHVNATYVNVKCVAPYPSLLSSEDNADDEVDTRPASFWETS
Chain of RON (Q04912 25-1400, species assumed): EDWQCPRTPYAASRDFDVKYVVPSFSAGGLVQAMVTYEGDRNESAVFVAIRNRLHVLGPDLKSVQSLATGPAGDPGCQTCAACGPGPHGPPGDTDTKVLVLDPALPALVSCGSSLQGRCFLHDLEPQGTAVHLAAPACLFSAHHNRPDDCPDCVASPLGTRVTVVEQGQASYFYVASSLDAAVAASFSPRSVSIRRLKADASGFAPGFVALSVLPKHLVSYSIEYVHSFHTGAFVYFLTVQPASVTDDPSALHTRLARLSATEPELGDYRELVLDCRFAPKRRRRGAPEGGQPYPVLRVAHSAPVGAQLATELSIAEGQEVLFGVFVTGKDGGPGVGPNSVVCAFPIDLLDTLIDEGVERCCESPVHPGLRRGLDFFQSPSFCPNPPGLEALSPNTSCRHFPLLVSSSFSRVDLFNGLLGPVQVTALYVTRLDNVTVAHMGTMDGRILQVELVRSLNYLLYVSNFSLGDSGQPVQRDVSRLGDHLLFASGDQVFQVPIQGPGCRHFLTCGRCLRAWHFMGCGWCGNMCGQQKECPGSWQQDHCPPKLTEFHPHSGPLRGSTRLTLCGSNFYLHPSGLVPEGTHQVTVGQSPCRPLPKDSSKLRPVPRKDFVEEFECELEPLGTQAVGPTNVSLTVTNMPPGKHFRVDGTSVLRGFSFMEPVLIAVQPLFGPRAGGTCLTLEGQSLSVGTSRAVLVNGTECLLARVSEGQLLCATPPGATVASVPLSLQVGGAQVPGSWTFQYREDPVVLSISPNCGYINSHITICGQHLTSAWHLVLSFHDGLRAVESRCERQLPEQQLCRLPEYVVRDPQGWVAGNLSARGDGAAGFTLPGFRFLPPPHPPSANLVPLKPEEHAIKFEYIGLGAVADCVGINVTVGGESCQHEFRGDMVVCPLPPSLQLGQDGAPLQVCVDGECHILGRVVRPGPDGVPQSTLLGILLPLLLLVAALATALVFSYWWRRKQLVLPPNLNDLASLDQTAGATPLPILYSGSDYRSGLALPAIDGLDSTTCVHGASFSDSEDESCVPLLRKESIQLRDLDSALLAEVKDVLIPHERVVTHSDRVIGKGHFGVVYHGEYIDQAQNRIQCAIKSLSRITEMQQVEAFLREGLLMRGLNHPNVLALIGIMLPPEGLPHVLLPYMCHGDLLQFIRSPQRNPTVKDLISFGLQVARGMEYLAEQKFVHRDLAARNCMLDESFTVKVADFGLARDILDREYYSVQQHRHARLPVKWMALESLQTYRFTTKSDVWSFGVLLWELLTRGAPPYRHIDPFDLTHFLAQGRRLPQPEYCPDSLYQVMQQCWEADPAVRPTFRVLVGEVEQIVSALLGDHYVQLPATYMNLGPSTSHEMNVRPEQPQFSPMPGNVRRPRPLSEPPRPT

| SMILES | IC50 (RON) | IC50 (cMET) |
| --- | --- | --- |
| Cc1c(C(=O)Nc2ccc(Oc3ccnc(N)c3Cl)c(F)c2)nnn1-c1ccccc1F [Example 42, N-(4-((2-amino-3-chloropyridin-4-yl)oxy)-3-fluorophenyl)-1-(2-fluorophenyl)-5-methyl-1H-1,2,3-triazole-4-carboxamide] | 50 to 500 nM | 500 to 5000 nM |
| Nc1cc(Oc2ccc(NC(=O)c3ncn(-c4ccccc4)c3C(F)(F)F)cc2F)ccn1 [Example 25] | 50 to 500 nM | > 5000 nM |
| Nc1nccc(Oc2ccc(NC(=O)c3cnn(-c4ccccc4F)c3C(F)(F)F)cc2F)c1Cl [Example 12, N-(4-((2-amino-3-chloropyridin-4-yl)oxy)-3-fluorophenyl)-1-(2-fluorophenyl)-5-(trifluoromethyl)-1H-pyrazole-4-carboxamide] | 50 to 500 nM | 500 to 5000 nM |
| Nc1nccc(Oc2ccc(NC(=O)c3cnn(-c4c(F)cccc4F)c3C(F)(F)F)cc2F)c1Cl [Example 37, N-(4-((2-amino-3-chloropyridin-4-yl)oxy)-3-fluorophenyl)-1-(2,6-difluorophenyl)-5-(trifluoromethyl)-1H-pyrazole-4-carboxamide] | < 50 nM | 500 to 5000 nM |
| CCc1c(C(=O)Nc2ccc(Oc3ncnc(N)c3Cl)c(F)c2)cnn1-c1ccccc1 [Example 47] | 50 to 500 nM | > 5000 nM |
| Cc1c(C(=O)Nc2ccc(Oc3ccnc(N)c3Cl)c(F)c2)cnn1-c1ccccc1 [Example 3, N-(4-((2-amino-3-chloropyridin-4-yl)oxy)-3-fluorophenyl)-5-methyl-1-phenyl-1H-pyrazole-4-carboxamide] | 50 to 500 nM | 50 to 500 nM |
| Nc1cc(Oc2ccc(NC(=O)c3cnn(-c4ccccc4)c3C(F)(F)F)cc2F)ccn1 [Example 44, N-(4-((2-aminopyridin-4-yl)oxy)-3-fluorophenyl)-1-phenyl-5-(trifluoromethyl)-1H-pyrazole-4-carboxamide] | 50 to 500 nM | > 5000 nM |

Second part, the compound after the results:

| IC50 (RON) | IC50 (cMET) | SMILES |
| --- | --- | --- |
| 50 to 500 nM | > 5000 nM | Nc1ncnc(Oc2ccc(NC(=O)c3ncn(-c4ccccc4)c3C(F)(F)F)cc2F)c1Cl [Example 63, N-[4-(6-amino-5-chloro-pyrimidin-4-yl)oxy-3-fluorophenyl]-1-phenyl-5-(trifluoromethyl)imidazole-4-carboxamide] |
| 500 to 5000 nM | 500 to 5000 nM | Nc1nccc(Oc2ccc(NC(=O)c3ccn(-c4ccccc4)n3)cc2F)c1Cl [Example 39, N-(4-((2-amino-3-chloropyridin-4-yl)oxy)-3-fluorophenyl)-1-phenyl-1H-pyrazole-3-carboxamide] |
| 500 to 5000 nM | > 5000 nM | Nc1nccc(Oc2ccc(NC(=O)c3cnn(-c4ccc(F)cc4)c3C(F)(F)F)cc2F)c1Cl [Example 11, N-(4-((2-amino-3-chloropyridin-4-yl)oxy)-3-fluorophenyl)-1-(4-fluorophenyl)-5-(trifluoromethyl)-1H-pyrazole-4-carboxamide] |
| 500 to 5000 nM | > 5000 nM | Cn1ncc(C(=O)Nc2ccc(Oc3ccnc(N)c3Cl)c(F)c2)c1C(F)F [Example 9, N-(4-((2-amino-3-chloropyridin-4-yl)oxy)-3-fluorophenyl)-5-(difluoromethyl)-1-methyl-1H-pyrazole-4-carboxamide] |
| 50 to 500 nM | > 5000 nM | C=CC(=O)N(C(=O)C=C)c1nccc(Oc2ccc(NC(=O)c3ncn(-c4ccccc4)c3C(F)(F)F)cc2F)c1Cl [Example 22] |
| 500 to 5000 nM | > 5000 nM | CN1CCCC(n2ncc(C(=O)Nc3ccc(Oc4ncnc(N)c4Cl)c(F)c3)c2C(F)(F)F)C1 (stereo not drawn) [Example 60, N-[4-(6-amino-5-chloro-pyrimidin-4-yl)oxy-3-fluorophenyl]-1-(1-methyl-3-piperidyl)-5-(trifluoromethyl)pyrazole-4-carboxamide] |
| 50 to 500 nM | > 5000 nM | CCOC(=O)Nc1c(Oc2ccc(NC(=O)c3cnn(-c4ccccc4)c3C(F)(F)F)cc2F)ccnc1N [Example 34, Ethyl(2-amino-4-(2-fluoro-4-(1-phenyl-5-(trifluoromethyl)-1H-pyrazole-4-carboxamido)phenoxy)pyridin-3-yl)carbamate] |
| 500 to 5000 nM | 500 to 5000 nM | Nc1nccc(Oc2ccc(NC(=O)c3cnn(Cc4ccccc4)c3C(F)(F)F)cc2F)c1Cl [Example 13, N-(4-((2-amino-3-chloropyridin-4-yl)oxy)-3-fluorophenyl)-1-benzyl-5-(trifluoromethyl)-1H-pyrazole-4-carboxamide] |
